Measurements published in PMC10892818, “An Antiherpesviral Host-Directed Strategy Based on CDK7 Covalently Binding Drugs: Target-Selective, Picomolar-Dose, Cross-Virus Reactivity” (Pharmaceutics, 2024).
Read-outs that look alike come from different tables or passages of the source.

Key:
HCMV UL97-C603W = system: HCMV UL97-C603W; parameters: method as in PMID 31940472; key: R-high, high-level drug resistance; R-int, intermediate-level drug resistance; R-low, low-level drug resistance; S, drug sensitivity; details: cited from earlier work
HCMV UL97-H520Q = system: HCMV UL97-H520Q; parameters: method as in PMID 31940472; key: R-high, high-level drug resistance; R-int, intermediate-level drug resistance; R-low, low-level drug resistance; S, drug sensitivity; details: cited from earlier work
HCMV UL97-H469V = system: HCMV UL97-H469V; parameters: method as in PMID 31940472; key: R-high, high-level drug resistance; R-int, intermediate-level drug resistance; R-low, low-level drug resistance; S, drug sensitivity; details: cited from earlier work
VZV Oka-GFP = assay: microbe, parasite or virus in culture; type: cell-based, varicella zoster virus; details: for EC50: Human alphaherpesvirus 3, 96 h
Source text: (§1) The virus recombinants VZV Oka-GFP and rKSHV.219-GFP/RFP were used for the infection of HFFs (virus stock VZV Oka-GFP applied as a cell-bound inoculum as described before) or were continuously passaged in iSLK.219 carrier cells, respectively (Figure 1). The conditions of the GFP/RFP-based assays were adapted to both the 96 well (Figure 1A,B) and 12 well formats, and details including the assessment of antiviral reference drugs are given (Figure 1C,D).
(§2) The virus recombinants VZV Oka-GFP and rKSHV.219-GFP/RFP were used for the infection of HFFs (VZV) or were continuously passaged in iSLK.219 carrier cells (KSHV), respectively, and cell viability was determined by NRA performed with uninfected HFFs or uninduced iSLK.219 cells, respectively. (A,B) Schematic depiction of the assay systems performed in a 96 well plate format. […] For the VZV-GFP system, virus stock VZV Oka-GFP was applied as a cell-bound infectious inoculum. After a 90 min period of inoculum adsorption to the cell surfaces, antiviral compounds were added to the culture media at serial dilutions (DMSO served as a solvent control for drug treatment of infected cells, while mock-infected cells served as a negative control). For the KSHV-GFP/RFP system, iSLK.219 cell lytic replication of KSHV (RFP reporter signal) was induced by the addition of 0.05 or 0.5 µg/mL doxycycline (dox) to the culture media. Cultivated dox-induced iSLK.219 cells were treated with antiviral compounds added at serial dilutions (DMSO served as a positive infection solvent control, while dox-untreated mock cells served as a negative control). HFFs or iSLK.219 cells were harvested at 4 d p.i. or 1 d after treatment, respectively, fixed by a 10 min incubation with 10% formalin, washed with PBS, and used for quantitation of the GFP or RFP reporter signal by PicoMD counting (ImageXpress® Pico device, Molecular Devices LLC, San Jose, CA, USA), with data evaluation using CellReporterXpress® software (version 2.9.3.1183, Molecular Devices LLC) as described earlier in [63]. (C) The antiviral activity of the reference drugs was determined with the VZV-GFP system in the 96 well format. EC50 values refer to measurements in quadruplicate, and the mean values ± SD of two experimental replicates are given. (D) The antiviral activity of the reference drugs was determined with the KSHV-GFP/RFP system in the 96 well format. EC50 values refer to measurements in triplicate, and the mean values ± SD are given for each of the two depicted experimental replicates.

[1] = system: GCV- or MBV-resistant HCMV variants (ORF-UL97 mutants); assay: HCMV reporter-based antiviral assays, series of GCV- or MBV-resistant variants; type: cell-based, human cytomegalovirus
Protocol: For the infection experiments, stocks of the following recombinant, reporter protein-expressing viruses (GFP or YFP (i.e., green or yellow fluorescent protein, respectively)) were propagated (in permissive cells), determined in their infectious titers performing the respective reporter assays, stored by aliquots at −80 °C, and used for the assessment of antiviral drug activities: human cytomegalovirus HCMV AD169-GFP (HFFs); murine cytomegalovirus MCMV C3X-GFP (MEFs); guinea pig cytomegalovirus GPCMV v403-GFP (GPEFs); human herpesvirus type 6A HHV-6A U1102-GFP (J-Jhan); herpes simplex virus type 1 HSV-1 166v VP22-GFP (HFFs); varicella zoster virus VZV Oka-GFP (HFFs); Epstein-Barr virus EBV Akata-GFP (Akata-BX1-GFP carrier cells; kindly provided by Lindsey Hutt-Fletcher and Rona Scott, Dept. Microbiol. […]
Due to the fact that the HCMV-encoded protein kinase pUL97 represents a functional and structural ortholog of the host CDKs (vCDK/pUL97), the viral mutants of ORF-UL97 were assessed for sensitivity against CDK7 inhibitors. […] These HCMVs (i.e., UL97 mutants C592G, H520Q (GCV-res.) L397R (MBV-res.) M460I, T409M, H411Y, C480F, F432S, C603W (GCV- and MBV-double res.), and H469V (not determined yet)) were used for comparative analysis in HCMV reporter-based antiviral assays.

rKSHV.219-GFP/RFP = assay: KSHV-GFP/RFP reporter assay in iSLK.219 cells; type: cell-based, Kaposi’s sarcoma-associated herpesvirus
Source text: as §1, §2

[2] = Neutral Red uptake assay (NRA), iSLK.219 cells; type: cell-based; details: human, read-out: CC50 (KSHV-GFP/RFP system)
Protocol: as §2

[3] = read-out: VZV EC50 (first experimental replicate)
[4] = read-out: VZV EC50 (second experimental replicate)

Compound	Reported phenotype UL97-C603W (HCMV UL97-C603W)	Reported phenotype UL97-H520Q (HCMV UL97-H520Q)	Reported phenotype UL97-H469V (HCMV UL97-H469V)	SI (VZV-GFP system) (VZV Oka-GFP; 96 well format)	EC50 (VZV Oka-GFP; [3])	EC50 (VZV Oka-GFP; [4])	drug resistance / sensitivity of the GCV- and MBV-resistant HCMVs [1]	EC50 (rKSHV.219-GFP/RFP; Human gammaherpesvirus 8, read-out: KSHV EC50, iSLK.219, 96 well, induced with 0.05 μg/mL dox)	EC50 (rKSHV.219-GFP/RFP; Human gammaherpesvirus 8, read-out: KSHV EC50, iSLK.219, 96 well, induced with 0.5 μg/mL dox)	CC50 ([2]; marked 0.05 μg/mL dox)	CC50 ([2]; marked 0.5 μg/mL dox)
Nc1ccn(C[C@@H](CO)OCP(=O)(O)O)c(=O)n1 [CDV, cidofovir]	S	S	nd | nd | S	> 323	300 ± 100 nM	300 ± 200 nM	all viruses showed sensitivity	–	–	–	–
Nc1nc(O)c2ncn(COC(CO)CO)c2n1 [GCV, ganciclovir]	R-high	R-high	–	–	1000 ± 800 nM	2900 ± 2700 nM	–	200 ± 100 nM	200 nM	> 100000 nM	> 100000 nM
